Reference: ChEMBL document CHEMBL1201862, “PubChem BioAssay data set” (2004)
Active and inactive are the calls of the source.

Assays:
[1] = IC50 of insulin release inhibition, rat insulinoma INS-1E line, 5 mM glucose, cell-based (AID 1117331); format: functional
[2] = glucagon-like peptide-1 release potency in STC-1, concentration-response, half-maximal inhibitory concentration in the STC-1 line (AID 1117345); format: functional, cell-based
[3] = Potency on glucagon-like peptide 1 release, dose-response in NCI-H716 cell line, half maximal inhibitory concentration (AID 1117344); format: functional, cell-based
[4] = cytotoxicity in MITF-independent A375 cells – cell-based, CellTiter-Glo luminescence, dry powder, set 9, counter-screen for MITF modulator project, dose response (AID 651591); format: functional; conditions: A-375
[5] = cytotoxicity in MITF-independent A375 cells – cell-based, CellTiter-Glo luminescence, dry powder, set 4, counter-screen for MITF inhibitor project, dose response (AID 624364); format: functional; conditions: A-375;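 also: A375 melanoma cells are MITF independent so this is a counter screen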
[6] = viability loss in MITF-independent A375 cells – cell-based, CellTiter-Glo luminescence, dry powder, set 7, counter-screen for MITF inhibitor project, dose response (AID 624490); format: functional; conditions: A-375
[7] = MITF Orthogonal Assay: MALME3 CTG Assay Measured in Cell-Based System Using Plate Reader - 2084-04_Inhibitor_Dose_DryPowder_Activity_Set6.; format: functional; conditions: MALME-3
[8] = MITF Measured in Cell-Based System Using Plate Reader - 2084-01_Inhibitor_Dose_DryPowder_Activity_Set7.; format: functional
[9] = growth inhibition of MALME3 cells – cell-based, CellTiter-Glo luminescence, dry powder, set 5, orthogonal assay for MITF inhibitor project, dose response (AID 651584); format: functional; conditions: MALME-3
[10] = MITF Measured in Cell-Based System Using Plate Reader - 2084-01_Inhibitor_Dose_DryPowder_Activity_Set6.; format: functional
[11] = MITF Orthogonal Assay: SK-MEL-5 CTG Assay Measured in Cell-Based System Using Plate Reader - 2084-02_Inhibitor_Dose_DryPowder_Activity_Set5.; format: functional
[12] = growth inhibition of SK-MEL-5 melanoma cells – cell-based, CellTiter-Glo luminescence, dry powder, set 8, orthogonal assay for MITF inhibitor project, dose response (AID 651586); format: functional
[13] = cytotoxicity in melanoma parental cells – cell-based, CellTiter-Glo, dry powder, set 6, MITF inhibitor project, dose response (AID 624429); format: functional; conditions: SK-MEL-5
[14] = inhibitors of TRPM1-promoter reporter in SK-MEL-5 – cell-based, luciferase, dry powder, set 9, MITF inhibitor project, dose response (AID 651588); format: functional
[15] = target: G-protein coupled receptor 183 (Homo sapiens, UniProt P32249); assay: SAR confirmation of small molecule antagonists of the EBI2 receptor via a luminescent beta-arrestin assa.; format: functional
Sequence of G-protein coupled receptor 183 (P32249 whole entry): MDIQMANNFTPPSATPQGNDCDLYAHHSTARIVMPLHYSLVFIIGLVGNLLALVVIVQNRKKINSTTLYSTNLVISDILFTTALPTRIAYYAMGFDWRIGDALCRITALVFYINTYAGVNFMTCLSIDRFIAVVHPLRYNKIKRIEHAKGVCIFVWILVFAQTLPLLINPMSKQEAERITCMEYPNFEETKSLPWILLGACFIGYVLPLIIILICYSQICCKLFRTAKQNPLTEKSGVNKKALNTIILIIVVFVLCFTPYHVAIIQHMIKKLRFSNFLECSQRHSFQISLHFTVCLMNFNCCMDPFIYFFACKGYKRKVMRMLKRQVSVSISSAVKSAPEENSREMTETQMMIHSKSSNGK

[16] = target: Sphingosine 1-phosphate receptor 2 (Homo sapiens, UniProt O95136); assay: Dose Response Cell Based Assay for Agonists of the S1P2 Receptor. [Related pubchem assays: 729, 736, 843 ]; format: functional
Sequence of Sphingosine 1-phosphate receptor 2 (O95136 whole entry): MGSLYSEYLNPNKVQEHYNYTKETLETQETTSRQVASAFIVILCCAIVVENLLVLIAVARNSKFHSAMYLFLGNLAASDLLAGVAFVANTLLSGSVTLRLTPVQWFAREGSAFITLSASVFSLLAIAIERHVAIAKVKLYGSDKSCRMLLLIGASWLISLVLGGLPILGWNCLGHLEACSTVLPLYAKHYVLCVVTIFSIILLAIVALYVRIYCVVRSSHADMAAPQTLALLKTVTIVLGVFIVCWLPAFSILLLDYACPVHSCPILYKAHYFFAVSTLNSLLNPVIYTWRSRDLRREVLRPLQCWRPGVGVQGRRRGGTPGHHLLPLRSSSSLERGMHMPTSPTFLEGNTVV

[17] = DRD fibroblast viability loss – cell-based, non-viral oncogenic, luminescence, dose response (AID 1934); format: functional; conditions: Homo sapiens
[18] = Luminescence Cell-Based Dose Confirmation HTS to Identify Inhibitors of Platelet Dense Granule Release. [Related pubchem assays: 1663 (Primary HTS), 1678 (Summary of Project)]; format: functional
[19] = reduced cellular PGC1a acetyl-lysine signal – cell-based, cherry-picked samples, dose response (AID 720514); format: functional;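 also: potency may reflect raised or lowered acetylation signal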
BJ [20] = assay: cells; format: functional, cell-based; conditions: Homo sapiens
[21] = microbe, parasite or virus in culture; format: functional; conditions: Mycobacterium tuberculosis
BJ [22] = assay: BJ-TERT-LT-ST fibroblast viability loss – cell-based, RAS-independent, luminescence, dose response (AID 1935); format: functional; conditions: Homo sapiens;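 also: BJ fibroblasts immortalized with TERT plus LT and ST oncogenes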
[23] = target: Luciferin 4-monooxygenase (Photinus pyralis, UniProt P08659); assay: inhibition of purified Photinus pyralis luciferase – biochemical, luminescence, dose response (AID 1891)
Sequence of Luciferin 4-monooxygenase (P08659 whole entry): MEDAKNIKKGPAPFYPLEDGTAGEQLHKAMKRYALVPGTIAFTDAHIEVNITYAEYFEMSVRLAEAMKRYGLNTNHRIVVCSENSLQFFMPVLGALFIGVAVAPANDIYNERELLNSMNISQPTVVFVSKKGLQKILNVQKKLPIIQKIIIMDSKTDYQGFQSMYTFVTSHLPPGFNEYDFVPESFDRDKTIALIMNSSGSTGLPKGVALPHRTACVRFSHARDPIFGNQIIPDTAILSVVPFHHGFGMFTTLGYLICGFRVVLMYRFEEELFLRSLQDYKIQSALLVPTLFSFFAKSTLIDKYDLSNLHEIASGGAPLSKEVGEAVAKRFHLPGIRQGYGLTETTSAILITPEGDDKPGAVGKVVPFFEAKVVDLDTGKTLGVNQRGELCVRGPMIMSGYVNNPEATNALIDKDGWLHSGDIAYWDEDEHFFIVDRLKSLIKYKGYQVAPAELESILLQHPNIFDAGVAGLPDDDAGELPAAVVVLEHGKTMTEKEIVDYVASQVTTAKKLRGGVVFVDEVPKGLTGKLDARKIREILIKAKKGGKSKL

BJ [24] = assay: BJ-TERT fibroblast viability loss – cell-based, RAS-independent, luminescence, dose response (AID 1933); format: functional; conditions: Homo sapiens
[25] = P. falciparum Dd2 growth inhibitors, dose response, SYBR Green, cherry-picked samples (AID 1159567); format: functional, cell-based
[26] = toxicity to human hepatoma HepG2 cells – cell-based, cherry-picked samples, cytotoxicity control, dose response (AID 1159577); format: functional
[27] = viability loss in THP-1 monocytes – THP-1 cells, cytotoxicity control for Vif-APOBEC3G degradation inhibitor project, dose response (AID 1117359); format: functional; conditions: THP-1
[28] = target: T1, DNA repair and recombination protein RAD54-like (Homo sapiens, UniProt Q92698); assay: RAD54 Holliday junction migration blockers – biochemical, fluorescence, cherry-picked samples, dose series, confirmation (AID 651657); format: functional
T1 sequence (Q92698 whole entry): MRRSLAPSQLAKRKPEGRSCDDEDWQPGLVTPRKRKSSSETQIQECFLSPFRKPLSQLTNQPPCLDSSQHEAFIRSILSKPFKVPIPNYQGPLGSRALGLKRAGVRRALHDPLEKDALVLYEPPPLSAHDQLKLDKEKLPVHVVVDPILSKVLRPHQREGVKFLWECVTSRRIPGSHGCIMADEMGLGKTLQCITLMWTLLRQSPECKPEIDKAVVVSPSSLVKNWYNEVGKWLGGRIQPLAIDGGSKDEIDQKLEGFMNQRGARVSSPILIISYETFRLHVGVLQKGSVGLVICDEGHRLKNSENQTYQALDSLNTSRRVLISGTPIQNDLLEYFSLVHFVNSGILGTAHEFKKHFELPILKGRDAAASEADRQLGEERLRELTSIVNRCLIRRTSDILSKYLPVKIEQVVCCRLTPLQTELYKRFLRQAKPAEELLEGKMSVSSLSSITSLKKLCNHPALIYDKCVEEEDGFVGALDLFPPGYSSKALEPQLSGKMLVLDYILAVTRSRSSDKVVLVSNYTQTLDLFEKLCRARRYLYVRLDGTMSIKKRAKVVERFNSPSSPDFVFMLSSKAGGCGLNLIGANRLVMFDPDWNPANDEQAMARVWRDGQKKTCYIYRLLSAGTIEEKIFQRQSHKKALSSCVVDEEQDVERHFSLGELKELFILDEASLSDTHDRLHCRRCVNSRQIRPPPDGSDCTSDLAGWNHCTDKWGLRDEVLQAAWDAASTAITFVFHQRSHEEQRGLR

cells [29] = conditions: HEK293
cells [30] = conditions: A549
Aminopeptidase N = target: T2, Aminopeptidase N (Plasmodium falciparum FcB1/Columbia, UniProt O96935); assay: malaria alanyl aminopeptidase activity blockers – biochemical, fluorogenic H-Leu-NHMec substrate, 1536-well (AID 1445); set-up: species or system Plasmodium falciparum 3D7, 3D7
T2 sequence (O96935 whole entry): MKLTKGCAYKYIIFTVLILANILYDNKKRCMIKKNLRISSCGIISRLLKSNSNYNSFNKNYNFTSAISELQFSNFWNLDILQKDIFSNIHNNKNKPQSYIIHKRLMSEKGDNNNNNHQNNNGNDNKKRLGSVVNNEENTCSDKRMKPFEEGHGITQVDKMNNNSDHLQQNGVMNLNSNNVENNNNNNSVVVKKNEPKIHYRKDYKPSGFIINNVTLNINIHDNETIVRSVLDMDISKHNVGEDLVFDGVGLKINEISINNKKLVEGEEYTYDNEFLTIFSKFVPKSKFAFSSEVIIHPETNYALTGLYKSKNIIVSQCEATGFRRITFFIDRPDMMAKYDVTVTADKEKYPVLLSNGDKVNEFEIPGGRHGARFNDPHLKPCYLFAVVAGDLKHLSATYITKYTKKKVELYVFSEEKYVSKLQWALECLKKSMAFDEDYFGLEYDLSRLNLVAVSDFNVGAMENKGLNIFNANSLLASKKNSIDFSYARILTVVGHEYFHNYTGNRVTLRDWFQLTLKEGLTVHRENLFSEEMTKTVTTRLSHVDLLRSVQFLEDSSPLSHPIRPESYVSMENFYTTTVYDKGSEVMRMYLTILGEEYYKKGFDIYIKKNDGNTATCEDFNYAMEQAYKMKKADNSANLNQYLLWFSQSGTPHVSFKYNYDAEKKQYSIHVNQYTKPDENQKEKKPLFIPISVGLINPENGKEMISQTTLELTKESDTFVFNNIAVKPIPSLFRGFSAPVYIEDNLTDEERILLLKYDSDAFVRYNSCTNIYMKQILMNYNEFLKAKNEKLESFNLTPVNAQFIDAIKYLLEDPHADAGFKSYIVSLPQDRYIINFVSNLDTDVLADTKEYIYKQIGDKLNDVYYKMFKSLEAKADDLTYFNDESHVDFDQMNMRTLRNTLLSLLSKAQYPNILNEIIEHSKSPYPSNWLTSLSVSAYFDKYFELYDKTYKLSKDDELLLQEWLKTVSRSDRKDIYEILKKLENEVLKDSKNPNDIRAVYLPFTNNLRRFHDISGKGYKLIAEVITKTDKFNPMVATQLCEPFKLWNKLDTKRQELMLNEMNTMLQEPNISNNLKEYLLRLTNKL

## CN(C)CCOC(C)(c1ccccc1)c1ccccn1 (stereo not drawn) [DOXYLAMINE SUCCINATE]
[1]
  IC50: > 33.3 µM (inactive)

## Cc1c(C)c2c(c(C)c1OC(=O)CCC(=O)OCCO)CC[C@@](C)(CCC[C@H](C)CCC[C@H](C)CCCC(C)C)O2
[2]
  IC50: > 40 µM (inactive)
[3]
  IC50: > 40 µM (inactive)

## NC1=C(NS(=O)(=O)c2cccs2)C(=O)c2ccccc2C1=O
[4]
  AC50: > 70 µM (inactive)
[5]
  AC50: > 70 µM (inactive)
[6]
  AC50: 53 µM (active)
[7]
  AC50: 32.5 µM (active)
[8]
  AC50: 5.42 µM (active)
[9]
  AC50: 32.5 µM (active)
[10]
  AC50: 5.31 µM (active)
[11]
  AC50: 16.9 µM (active)
[12]
  AC50: 22.1 µM (active)
[13]
  AC50: 16.7 µM (active)
[14]
  AC50: 21.3 µM (active)

## O=C(/C=C/c1ccc(Cl)cc1F)N1CCN(S(=O)(=O)c2ccccc2)CC1
[15]
  IC50: 0.184 µM (active)

## O=C(/C=C/c1ccc(Br)cc1)N1CCN(Cc2ccc(Cl)cc2F)CC1
[15]
  IC50: 0.00811 µM (active)

## Cc1cc(C)n2cc(CSc3nnnn3-c3ccc(Cl)cc3)nc2n1
[16]
  EC50: > 50 µM (not active)

## COc1ccccc1N1CCN(c2ccc(-c3ccccc3)nn2)CC1
[17]
  EC50: 1.7 µM (active)
[18]
  EC50: 5.08 µM (active)
[19]
  AC50: 25.9 µM (active)
BJ [20]
  EC50: 17 µM (active)
[21]
  CC50: 13.7 µM (active)
BJ [22]
  EC50: 1.93 µM (active)
[23]
  EC50: 3.72 µM (active)
BJ [24]
  EC50: 2.33 µM (active)

## COc1cccc(CN(C)C[C@H]2OCc3ccccc3-c3c(n(C)c4ccccc34)C(=O)N([C@H](C)CO)C[C@H]2C)c1
[25]
  AC50: 6.01 µM (active)
[26]
  AC50: > 39 µM (inactive)

## NS(=O)(=O)c1cccc(NS(=O)(=O)c2ccc(/C=C/C(=O)OCC(=O)c3ccccc3)cc2)c1
[27]
  CC50: > 40 µM (active)

## CCn1c(=N)c(C(=O)NCCCOC)cc2c(=O)n3cccc(C)c3nc21
[28]
  AC50: 33.6 µM (active)
Cells [29]
  AC50: > 52 µM (inactive)
Cells [30]
  AC50: > 52 µM (inactive)
Aminopeptidase N
  IC50: 50.3 µM (active)

## Cc1cccc(S(=O)(=O)N2C[C@@H]3N[C@H](C2)[C@@H]3c2ccc(-c3ccccc3C)cc2)c1
[19]
  AC50: 12.8 µM (active)
